In patent US7494996B2 (priority 2000, dated 2009):

What was measured:
Sphaerotheca fuliginea = test: Cucumber Powdery Mildew (CPM) protectant test in the greenhouse; assay type: in vivo; details: 100 is total disease control, 0 is no disease control; for Cucumber Powdery Mildew (CPM) protectant fungicide data, percent control: 300 g/ha; for pest or weed control at 300 g/ha: Podosphaera fuliginea, topical, 168 h, read-out: Cucumber Powdery Mildew (CPM) protectant fungicide data, percent control
Procedure: Plants used in the fungicide testing program were grown in 2-¼-inch (5.7-cm). square pots containing RediEarth propagation substrate. The plants were raised under greenhouse conditions. The rice plants were 12-days-old and cucumbers were 13-days-old at the time of spraying with chemical treatments.
The sample of the experimental chemical was weighed and dissolved in an acetone-methanol-water solution (A/M/W at 1:1:2 ratio by volume).
After sprayer calibration, the test solutions were poured into the fungicide sprayer. The fungicide sprayer contains three spray nozzles, located approximately 10 cm above and to the sides of the plants. The spray produced by the nozzles results in uniform coverage of both the upper and lower parts of the plant leaves. After spraying, the treated plants were placed in a drying chamber for 4 hours, prior to sorting.
Cucumber Powdery Mildew (CPM), caused by the fungus Sphaerotheca fuliginea, was maintained on large cucumber plants. For inoculum preparation, five to eight leaves depending on size, completely covered with powdery mildew spores, were collected. The leaves were placed in a glass jar and covered with 500 ml of water, containing 5 drops of Tween-80. The material was filtered through two layers of cheesecloth to remove leaf fragments. The spore count was adjusted to 2×10^5 spores per ml.
Cucumber plants, cv. “Bush Champion,” were used for this test. The plants were thinned to one per pot after the cotyledons were fully developed. Two days before the test, the small leaves and meristem region were removed, leaving only the cotyledons and one large true leaf.
The protectant tests required that the cucumber plants be inoculated 1 day after spraying with the chemical treatment. The plants were inoculated with a hand-held spray bottle with the suspension of fungal spores. The leaves were lightly misted on the upper surface from two different spray directions. Disease development occurred in the greenhouse.
After seven days, the plants were evaluated for percent of disease control. The results are reported as percent control; 100 is total disease control, 0 is no disease control.

Pyricularia oryzae = test: whole plant or invertebrate; assay type: in vivo; details: 100 is total disease control, 0 is no disease control; for Rice Blast (RB) protectant fungicide data, percent control: 300 g/ha, greenhouse; for pest or weed control at 300 g/ha: Pyricularia oryzae, topical, 144 h, read-out: Rice Blast (RB) protectant fungicide data, percent control, protectant, 300 g/ha, greenhouse

SMILES | Cucumber Powdery Mildew (CPM) protectant fungicide data, percent control (Sphaerotheca fuliginea) [percent control] | Rice Blast (RB) protectant fungicide data, percent control (Pyricularia oryzae) [percent control] | pest or weed control at 300 g/ha (Sphaerotheca fuliginea) [%] | pest or weed control at 300 g/ha (Pyricularia oryzae) [%]
CCOc1ccc(C2=NN(c3ccc(Cl)cc3)C(=O)CN2)cc1 [Compound 161] | 0 | 80 |  | 
CCCCN1N=C(c2cc(Cl)cc(Cl)c2)NCC1=O [Compound 104] | 80 | 99 |  | 
O=C1CNC(c2ccc(F)c(Br)c2)=NN1CC(F)(F)F [Compound 208] | 50 | 95 |  | 
C#CCN1CC(=O)N(CC(F)(F)F)N=C1c1cccc(C(F)(F)F)c1 [Compound 89] | 0 | 75 |  | 
CCCCCCCCCCN1N=C(c2ccc(Cl)cc2)NCC1=O [Compound 57] | 0 | 50 |  | 
CCCCN1N=C(c2cc(Cl)cc(Cl)c2)N(C(=O)OC)CC1=O [Compound 130] | 0 | 50 |  | 
CCCCN1N=C(c2ccc(-c3ccc(C4=NN(CCCC)C(=O)CN4)cc3)cc2)NCC1=O [Compound 231] |  |  | 0 | 85
O=C1CNC(c2ccc(Cl)c(Cl)c2)=NN1CC1CC1 [Compound 9, 1-Cyclopropylmethyl-3-(3,4-dichlorophenyl)-4,5-dihydro-1,2,4-triazin-6-one] |  |  | 80 | 100
CCCOc1ccc(C2=NN(CC(F)(F)F)C(=O)CN2)cc1 [Compound 145] | 0 | 90 |  | 
CCCCN1N=C(c2ccc(Cl)c(Cl)c2)N(C=CS(=O)(=O)c2ccccc2)CC1=O [Compound 13, 1-n-butyl-3-(3.4-dichlorophenyl)-4-(2-phenylsulfonylethene)-4,5-dihydro-1,2,4-triazin-6-one] | 0 | 95 |  | 
O=C1CN(CC2CC2)C(c2ccc(F)c(Br)c2)=NN1CC1CC1 [Compound 219] | 75 | 50 |  | 
CCCCN1N=C(c2ccccc2O)NCC1=O [Compound 83, 1-n-Butyl-3-(2-hydroxyphenyl)-4,5-dihydro-1,2,4-triazin-6-one] |  |  | 0 | 80
CCCCn1nc(-c2ccc(Cl)cc2)ncc1=O [Compound 258] | 75 | 100 |  | 
C=CCN1N=C(c2cc(Cl)cc(Cl)c2)NCC1=O [Compound 128] | 0 | 90 |  | 
CCCCN1N=C(c2ccc(Oc3ccccc3)cc2)NCC1=O [Compound 3, 1-Butyl-3-(4-phenoxyphenyl)-4,5-dihydro-1,2,4-triazin-6-one] |  |  | 0 | 80
CCCCN1N=C(c2cccc(Br)c2)NCC1=O [Compound 211] | 85 | 100 |  | 
C#CCN1CC(=O)N(CC#C)N=C1c1cccc(C(F)(F)F)c1 [Compound 87] | 0 | 90 |  | 
C#CCN1CC(=O)N(CC#C)N=C1c1cccc(Br)c1 [Compound 226] | 0 | 50 |  | 
CCCCN1N=C(C)NC(c2ccc(C(C)(C)C)cc2)C1=O (centres unmarked) [Compound 95] | 75 | 25 |  | 
O=c1[nH]c(-c2cc(Cl)cc(Cl)c2)nn(CC(F)(F)F)c1=O [Compound 21, 1-(2,2,2-Trifluorethyl)-3-(3,5-dichlorophenyl)-1,2,4-triazin-5,6-dione] | 50 | 0 |  | 

SMILES | Cucumber Powdery Mildew (CPM) protectant fungicide data, percent control (Sphaerotheca fuliginea) [percent control] | Rice Blast (RB) protectant fungicide data, percent control (Pyricularia oryzae) [percent control] | pest or weed control at 300 g/ha (Sphaerotheca fuliginea) [%] | pest or weed control at 300 g/ha (Pyricularia oryzae) [%]
CCCOc1ccc(-c2ncc(=O)n(CC(F)(F)F)n2)cc1 [Compound 281] | 95 | 85 |  | 
O=C1CNC(c2ccccc2Cl)=NN1CC(F)(F)F [Compound 97] | 85 | 0 |  | 
C=CC1NC(c2ccc(Cl)c(Cl)c2)=NN(CCCC)C1=O (centres unmarked) [Compound 202] | 0 | 90 |  | 
Cc1ccccc1C1=NN(CC(F)(F)F)C(=O)C(O)N1 (centres unmarked) [Compound 105] | 75 | 85 |  | 
CCOC(=O)CN1N=C(c2ccc(F)c(F)c2)NCC1=O [Compound 125] | 50 | 50 |  | 
CSc1ccc(C2=NN(c3cccc(C)c3)C(=O)CN2)cc1 [Compound 187] | 0 | 80 |  | 
CCCCN1N=C(c2cc(Cl)cc(Cl)c2)N(C(=O)Oc2ccccc2)CC1=O [Compound 194] | 0 | 80 |  | 
CCCCN1N=C(c2sc(C)nc2C(F)(F)F)NCC1=O [Compound 68] | 50 | 0 |  | 
CCCCN1N=C(c2ccc(C3=NN(CCCC)C(=O)CN3)cc2)NCC1=O [Compound 230] |  |  | 0 | 75
CCCCN1N=C(C)NC(c2ccc(F)c(C)c2)C1=O (centres unmarked) [Compound 94] | 75 | 0 |  | 
O=C1CNC(c2cccc(F)c2)=NN1CC(F)(F)F [Compound 84] | 85 | 80 |  | 
O=C1CNC(c2ccc(-c3ccccc3)cc2)=NN1CC(F)(F)F [Compound 146] | 85 | 95 |  | 
C=C(C)C1NC(c2ccc(Cl)c(Cl)c2)=NN(CCCC)C1=O (centres unmarked) [Compound 203] | 0 | 85 |  | 
CN1N=C(c2ccc(Oc3ccccc3)cc2)NCC1=O [Compound 156] | 0 | 85 |  | 
N#CCN1N=C(c2ccc(Cl)cc2)NCC1=O [Compound 60] | 0 | 75 |  | 
CCCCN1N=C(C)NC(c2cccc(N)c2)C1=O (centres unmarked) [Compound 78] | 25 | 0 |  | 
C=CCOC(=O)N1CC(=O)N(CCCC)N=C1c1ccc(Cl)c(Cl)c1 [Compound 172] | 0 | 98 |  | 
Cc1c(Cl)cc(C2=NN(CC(F)(F)F)C(=O)CN2)cc1Cl [Compound 47] | 80 | 100 |  | 
CCCCN1N=C(C)NC(c2ccccc2C)C1=O (centres unmarked) [Compound 76] | 25 | 0 |  | 
O=C1CNC(c2ccc(F)c(F)c2)=NN1CC(F)(F)F [Compound 98] | 75 | 85 |  | 
